Reference: PMC13330650 (Matrix biology : journal of the International Society for …, 2025)
Positions count from the first letter of the chain named. Entries after “also recorded” stand apart in the source; their conditions may differ. One block for each molecule: values may come before it.

Columns and labels:
[1] = system: O-glycans in LNCaP UGDH WT (OE) and S316D cells; experiment: metabolic O-glycan labeling (Ac4GalNaz click chemistry) with 4-MU; assay type: cell-based, human; settings: 10 μM 4-MU, 72 hours
[2] = system: UGDH pS316 in LNCaP cells; experiment: western blot of UGDH pS316 (anti-p-Akt substrate) in LNCaP whole cell lysates; assay type: cell-based, human; settings: LNCaP cells; EGF 20ng/mL; inhibitor 20 μM
Text: To validate the phosphorylation of UGDH by RSK2, S6K1, and SGK1 in a cellular context, we used a western analysis that capitalized on the general reactivity of an antibody generated against the phosphorylated AGC kinase motif (RxRxxpS/T) for targets of Akt, which is also a member of this kinase family. To validate the assay, we first compared phosphorylation of S316 in the in vitro kinase assay using purified recombinant UGDH. […] We further validated using serum starved LNCaP cells treated with EGF to stimulate activity of RSK2 [26] and S6K1 [27], or DHT to activate SGK1 [28], prior to lysate harvest.
(§1) Cell treatments were conducted as follows, except where described. To stimulate phosphorylation of UGDH at S316 for Western blot analysis, cells were cultured in replete medium until they reached 70 % confluence. Seventy-two hours prior to harvest, medium was replaced with phenol-red-free media containing 5 % CS-FBS to reduce androgen signaling. Twenty-four hours prior to harvest, medium was replaced with phenol-red-free media containing 10 % CS-FBS plus 10 nM DHT or vehicle control. EGF (20ng/mL) or vehicle control were added to cell media twenty minutes prior to harvest. For assessment of UGDH pS316 in these conditions with kinase inhibition, assays were repeated with kinase inhibitors added alongside EGF, DHT, and controls. Kinase inhibitor treatment concentrations were optimized based on published efficacy ranges and the following were used for all assays: BIX02565 (20 μM), PF4708671 (20 μM), GSK650394 (40 μM). Proliferation assays were performed with 10 μM enzalutamide (enz) added as described below, and 3D assays were performed with 1 μM enz added during seeding as described. For click chemistry quantification of glycans in cells treated with 4-MU, 10 μM was added to cell medium during the addition of the click labeling reagents.
Media were aspirated from cells, and a portion kept for analysis of HA content. Cells were washed with 2 mL cold 1x PBS, scraped into 1 mL of cold 1xPBS, pelleted by centrifugation, and lysed with 1x RIPA buffer supplemented with 1x protease inhibitor cocktail. For analysis of phosphoprotein expression, 1x phosphatase inhibitor was added to the lysis buffer. Bradford assay was performed to quantify protein content of cell lysates. Blots were imaged and quantified through fluorescence emission using the Odyssey Infrared Imaging System (LI-COR Biosciences, Lincoln, NE, USA). β-tubulin or GAPDH were used to normalize protein expression. Each analysis was plotted for three technical replicates of a representative experiment that was repeated at least three times. Statistical significance was assessed by one-way ANOVA followed by Tukey’s post hoc test for multiple comparisons.

[3] = system: LNCaP cell lines (VC, UGDH WT (OE), UGDH S316D, UGDH S316A); experiment: proliferation assay (resazurin conversion to resorufin); assay type: cell-based, human
Procedure: as §1
For basal growth, 5 × 10^4 cells of each line were cultured in 24-well plates in standard steroid-replete media. Cell proliferation was measured daily for three days in replicate plates incubated for 2 h with media containing 10 % resazurin, after which fluorescence of the reduced product, resorufin, was measured (560Ex/590Em) in a microplate reader. To assess the impacts of kinase inhibition on cell growth, assays were repeated in the presence of inhibitors individually and in combination. For androgen-mediated cell growth with kinase inhibition, cells were cultured in 24-well plates in standard steroid-replete media. After 12 h, media were first removed and replaced with media containing 5 % CS-FBS (androgen-depleted conditions) for 48 h, and then media were removed and replaced with media containing 10 % CS-FBS plus 10 nM DHT and kinase inhibitors for another 48 h. Cell proliferation was measured daily as described above beginning when cells were switched to androgen free conditions. For enz treatments, cells were cultured in 24-well plates in standard steroid-replete media. After 12 h, media were replaced with replete media containing vehicle or 10 μM enz and vehicle or kinase inhibitors. For assays with kinase inhibition, cell proliferation was measured daily as described above beginning when cells were switched to the respective treatment condition. Cell numbers were extrapolated from fluorescence values by comparison to a standard curve for each respective cell line, and cell count at the end of the experiment was normalized to cell count on day zero directly following media replacement. All data were plotted for four technical replicates of experiments that were repeated three times. Statistical significance was assessed by one-way ANOVA followed by Tukey’s post hoc test for multiple comparisons.

[4] = system: LNCaP cell lines (VC, UGDH WT (OE), UGDH S316D, UGDH S316A); experiment: tumoroid (anchorage independent spheroid) growth assay; assay type: cell-based, human
UGDH S316A = biological target: T1, UGDH S316A (Homo sapiens, UniProt O60701, S316A); experiment: steady state kinetics of purified recombinant UGDH S316A; assay type: biochemical; settings: cofactor NAD+ varied
T1 construct: six-histidine; made in house; host or cells: E. coli BL21(DE3)
T1 sequence (O60701 1-494 S316A): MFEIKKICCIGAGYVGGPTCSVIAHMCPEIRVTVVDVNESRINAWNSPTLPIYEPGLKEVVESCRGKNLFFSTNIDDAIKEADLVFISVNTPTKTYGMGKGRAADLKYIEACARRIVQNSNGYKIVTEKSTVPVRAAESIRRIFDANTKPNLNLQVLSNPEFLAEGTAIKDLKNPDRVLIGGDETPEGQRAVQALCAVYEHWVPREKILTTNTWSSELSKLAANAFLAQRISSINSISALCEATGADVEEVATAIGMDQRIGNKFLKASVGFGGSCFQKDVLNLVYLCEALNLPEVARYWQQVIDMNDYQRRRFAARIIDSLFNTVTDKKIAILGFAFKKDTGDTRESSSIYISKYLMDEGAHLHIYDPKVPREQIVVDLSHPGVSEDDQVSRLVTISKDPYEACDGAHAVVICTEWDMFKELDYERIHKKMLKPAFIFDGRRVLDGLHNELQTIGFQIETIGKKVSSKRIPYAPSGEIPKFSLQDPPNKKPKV
Procedure: (§2) Purified S316 mutants were compared to the UGDH WT enzyme using the following approaches as previously described. Enzymatic activity was evaluated by steady state kinetics in the presence and absence of the endogenous inhibitor UDP-Xylose to compare Michaelis constants and IC50 values. Intrinsic stability was assessed by thermal denaturation and quaternary structure was determined by size exclusion chromatography. Binding of UDP-Xylose to recombinant UGDH and mutants was measured by isothermal titration calorimetry using the MicroCal PEAQ-ITC (Malvern Panalytical). […] Binding heats were corrected for the heat of dilution and analyzed using the MicroCal PEAQ-ITC Analysis Software, employing a single-site binding model to determine Kd values.

UGDH S316D = biological target: T2, UGDH S316D (Homo sapiens, UniProt O60701, S316D); experiment: steady state kinetics of purified recombinant UGDH S316D; assay type: biochemical; settings: cofactor NAD+ varied
T2 construct: six-histidine; made in house; host or cells: E. coli BL21(DE3)
T2 sequence (O60701 1-494 S316D): T1 sequence (O60701 1-494 S316A) with A316D
Procedure: as §2

UGDH WT = biological target: T3, UGDH WT (Homo sapiens, UniProt O60701); experiment: steady state kinetics of purified recombinant UGDH WT; assay type: biochemical; settings: cofactor NAD+ varied
T3 construct: six-histidine; made in house; host or cells: E. coli BL21(DE3)
T3 sequence (O60701 1-494): T1 sequence (O60701 1-494 S316A) with A316S
Procedure: as §2

SMILES: Cc1cc(=O)oc2cc(O)ccc12 [4-MU, 4-methylumbelliferone]
O-glycan levels with 4-MU ([1]; UGDH S316D cell lines): this reversal was not observed | O-glycan levels with 4-MU ([1]; UGDH WT (OE) cells): significant reductions in O-linked glycans; also recorded: reversed the enhancement of O-glycan levels

SMILES: C[C@@H]1CCNC(=O)c2cc3ccc(C(=O)Nc4nc5ccccc5n4CCCN(C)C)cc3n21 [BIX02565]
EGF-stimulated p-UGDH band intensity [2]: significantly reduced | cell death ([3]; VC and UGDH S316A cells, BIX02565 20 μM): induced significant cell death | cell number / proliferation, single kinase inhibitor ([3]; all lines, 3-day, inhibitor 20 μM, replete media): reduced cell number in all lines | spheroid growth diminished ([4]; UGDH WT (OE) and S316D expressing cells, RSK2 inhibitor BIX02565 20 μM): ≈ 80% | medium and large spheroid growth ([4]; VC and UGDH S316A cell lines, RSK2 inhibitor BIX02565 20 μM): almost completely suppressed

Km (UGDH S316A): 380 ± 60 µM | NAD+ Vmax (UGDH S316A): 490±20 nmol/min/mg of protein | NAD+ Vmax (UGDH S316A; listed as NAD^+): 490 nmol/min/mg of protein | Km (UGDH S316D): 330 ± 70 µM | NAD+ Vmax (UGDH S316D): 230±20 nmol/min/mg of protein | NAD+ Vmax (UGDH S316D; listed as NAD^+): 230 nmol/min/mg of protein | Km (UGDH WT): 530 ± 90 µM | NAD+ Vmax (UGDH WT): 710±40 nmol/min/mg of protein | NAD+ Vmax (UGDH WT; listed as NAD^+): 710 nmol/min/mg of protein
SMILES: NC(=O)c1ccc[n+]([C@@H]2O[C@H](COP(=O)([O-])OP(=O)(O)OC[C@H]3O[C@@H](n4cnc5c(N)ncnc54)[C@H](O)[C@@H]3O)[C@@H](O)[C@H]2O)c1 [NAD+]

SMILES: CNC(=O)c1ccc(N2C(=S)N(c3ccc(C#N)c(C(F)(F)F)c3)C(=O)C2(C)C)cc1F [enz, enzalutamide]
growth in the presence of enz and S6K1 inhibitor ([3]; UGDH S316D lines, 10 μM enz + PF4708671 20 μM): < 30 % of initial cell count | proliferation in the presence of enz alone ([3]; UGDH WT and S316D cells, 10 μM enz): minimal detectable effect on proliferation; also recorded: continued to proliferate | growth reduction, combined targeting of RSK2 with enz ([3]; UGDH WT and S316D, 10 μM enz + BIX02565 20 μM): ≈ 20% | growth, combined targeting of RSK2 with enz ([3]; VC and UGDH S316A lines, 10 μM enz + BIX02565 20 μM): eliminated growth | growth suppression by enz alone ([3]; VC and UGDH S316A-expressing cells, 10 μM enz): ≈ 40% | enz suppression of large spheroid growth ([4]; UGDH WT (OE) and S316D expressing cells, 1 μM enz): sensitive
